# Laboratory results: patent US20260206757A1, “METHODS OF CONTROLLING UNDESIRABLE PLANTS WITH PPO HERBICIDES AND COMBINATIONS IN HERBICIDE TOLERANT CROP PLANTS” (BASF AGRO B.V., priority 2022, published 2026)
# What was measured:
# HELAN Pacino = experiment: Greenhouse experiment, crop safety of sunflower; type: in vivo, Helianthus annuus; settings: scale 0 to 100%
# Protocol: (§1) For the post emergence treatment, the plants were first grown to the 2 to 4 leaf stage (GS 12/14). The plants were cultivated due to their individual requirements at 10-25° C. and 20-35° C. The plants were irrigated as required.
# (§2) Here, the herbicidal compositions were suspended or emulsified in water as distribution medium and sprayed using finely distributing nozzles. 1% methylated seed oil (MSO) has been added as adjuvant to each of the solo and mixture treatments.
# (§3) In the greenhouse experiments, the herbicidal activity for the individual herbicidal compositions (solo and mixture applications) was assessed 20/21 days after treatment (DAT).
# (§4) The evaluation for the damage on undesired weeds caused by the chemical compositions was carried out using a scale from 0 to 100%, compared to the untreated control plants. Here, 0 means no damage and 100 means complete destruction of the plants.
# Sorghum halepense = experiment: Greenhouse experiment, post emergence herbicidal activity; type: in vivo; settings: SORHA, BBCH 12-14, Saflufenacil 4, Bifenox 168 g ai/ha
# Protocol: as §1, §2, §3, §4
# Convolvulus arvensis = experiment: as above; type: in vivo; settings: CONAR
# Protocol: as §1, §2, §3, §4
# Papaver rhoeas = experiment: as above; type: in vivo; settings: PAPRH
# Protocol: as §1, §2, §3, §4
# Mercuralis annua [1] = experiment: as above; type: in vivo; settings: MERAN
# Protocol: as §1, §2, §3, §4
# Abutilon theophrasti = experiment: as above; type: in vivo; settings: ABUTH
# Protocol: as §1, §2, §3, §4
# Ambrosia artemisiifolia = experiment: as above; type: in vivo; settings: AMBEL
# Protocol: as §1, §2, §3, §4
# Polygonum aviculare = experiment: as above; type: in vivo; settings: POLAV
# Protocol: as §1, §2, §3, §4
# Sonchus arvensis = experiment: as above; type: in vivo; settings: SONAR
# Protocol: as §1, §2, §3, §4
# Portulaca oleracea = experiment: as above; type: in vivo; settings: POROL, BBCH 12-14, Flumioxazin 4, Bifenox 168 g ai/ha
# Protocol: as §1, §2, §3, §4
# Chenopodium album = experiment: as above; type: in vivo; settings: CHEAL
# Protocol: as §1, §2, §3, §4
# HELAN w F(383)I = experiment: Greenhouse experiment, crop safety of PPO inhibitor tolerant sunflower; type: in vivo, Helianthus annuus; settings: scale 0 to 100%
# Protocol: as §1, §2, §3, §4
# Hibiscus trionum = experiment: Greenhouse experiment, post emergence herbicidal activity; type: in vivo; settings: HIBTR
# Protocol: as §1, §2, §3, §4
# Matricaria chamomilla = experiment: as above; type: in vivo; settings: MATCH
# Protocol: as §1, §2, §3, §4
# Solanum nigrum = experiment: as above; type: in vivo; settings: SOLNI, BBCH 12-14, Flumioxazin 1, Fomesafen 123 g ai/ha
# Protocol: as §1, §2, §3, §4
# Echinochloa crus-galli [2] = experiment: as above; type: in vivo; settings: ECHCG
# Protocol: as §1, §2, §3, §4
# Setaria viridis = experiment: as above; type: in vivo; settings: SETVI
# Protocol: as §1, §2, §3, §4
# Mercuralis annua [3] = experiment: Field experiment, post-emergence herbicidal activity; type: in vivo; settings: MERAN, postemergence, Saflufenacil 12.5, Pendimethalin 1365 g ai/ha
# Protocol: (§5) Trial Objective: Saflufenacil in tank mix with Pendimethalin efficacy on weeds and grasses in early post-emergence of the weeds
# (§6) On field test sites, natural weed infestation was treated, pre-emergence of the weeds on bare soil or post-emergence of the weeds.
# (§7) For the post emergence treatment, the weedy plants were treated between the 2-4 true leaf stage (GS12-14) and the 6 true leaf stage (GS 16). The herbicidal compositions were suspended or emulsified in water as distribution medium and sprayed with commercial flat fan nozzles using between 100 and 200 l/ha water.
# as §4, with “In the following experiments, the herbicidal activity for the individual herbicidal compositions (solo and mixture applications) was assessed up to 36 days after treatment (DAT). The” for “The”, “assessments” for “evaluation”
# (§8) [formula] • where X=effect in percent using herbicide (A) at an application rate a; • Y=effect in percent using herbicide (B) at an application rate b; • E=expected effect (in %) of herbicide (A)+herbicide (B) at application rates a+b.
# (§9) The value E corresponds to the effect (plant damage or injury) which is to be expected if the activity of the individual compounds is additive. If the observed effect is higher than the value E calculated according to the Colby equation, a synergistic effect is present.
# Amaranthus retroflexus = experiment: as above; type: in vivo; settings: AMARE, postemergence
# Protocol: as §5, §6, §7
# as §4, with “In the following experiments, the herbicidal activity for the individual herbicidal compositions (solo and mixture applications) was assessed up to 36 days after treatment (DAT). The” for “The”, “assessments” for “evaluation”
# as §8, §9
# Echinochloa crus-galli [4] = experiment: as above; type: in vivo; settings: ECHCG, postemergence
# Protocol: as §5, §6, §7
# as §4, with “In the following experiments, the herbicidal activity for the individual herbicidal compositions (solo and mixture applications) was assessed up to 36 days after treatment (DAT). The” for “The”, “assessments” for “evaluation”
# as §8, §9
# Erigeron canadensis = experiment: Greenhouse experiment, post emergence herbicidal activity; type: in vivo; settings: ERICA, BBCH 12-14, Flumioxazin 1, Pyraflufen-ethyl 1.5 g ai/ha
# Protocol: as §1, §2, §3, §4
# Eleusine indica = experiment: Field experiment, pre-emergence herbicidal activity on bare ground; type: in vivo; settings: ELEIN, preemergence, Saflufenacil 25, Sulfentrazone 210 g ai/ha
# Protocol: (§10) Trial Objective: Efficacy of Saflufenacil in tank mix with Flumioxazin applied in pre-emergence of the weeds on bare ground.
# (§11) Trial Objective: Efficacy of Saflufenacil in tank mix with Sulfentrazone applied in pre-emergence of the weeds on bare ground.
# as §6
# (§12) For the pre-emergence treatment, the active compounds, suspended or emulsified in water, were applied by means of finely distributing nozzles on bare ground.
# as §4, with “In the following experiments, the herbicidal activity for the individual herbicidal compositions (solo and mixture applications) was assessed up to 36 days after treatment (DAT). The” for “The”, “assessments” for “evaluation”
# as §8, §9
# Urochloa texana = experiment: as above; type: in vivo; settings: PANTE, preemergence, Saflufenacil 25, Sulfentrazone 210 g ai/ha
# Protocol: as §10, §11, §6, §12
# as §4, with “In the following experiments, the herbicidal activity for the individual herbicidal compositions (solo and mixture applications) was assessed up to 36 days after treatment (DAT). The” for “The”, “assessments” for “evaluation”
# as §8, §9
# [5] = BBCH 12-14, Flumioxazin 0.5, Bifenox 168 g ai/ha
# [6] = BBCH 12-14, Saflufenacil 1, Bifenox 168 g ai/ha
# [7] = BBCH 12-14, Saflufenacil 0.5, Bifenox 168 g ai/ha
# [8] = BBCH 12-14, Saflufenacil 0.5, Clethodim 30 g ai/ha
# [9] = BBCH 12-14, Flumioxazin 2, Fomesafen 123 g ai/ha
# [10] = BBCH 12-14, Flumioxazin 0.5, Halauxifen 1 g ai/ha
# [11] = BBCH 12-14, Flumioxazin 2, Halauxifen 1 g ai/ha
# [12] = BBCH 12-14, Flumioxazin 0.5, Imazamox 10 g ai/ha
# [13] = BBCH 12-14, Saflufenacil 1, Imazamox 10 g ai/ha
# [14] = Saflufenacil 12.5, Pendimethalin 1064 g ai/ha
# [15] = BBCH 12-14, Flumioxazin 0.5, Pyraflufen-ethyl 1.5 g ai/ha
# [16] = BBCH 12-14, Flumioxazin 2, Tribenuron-methyl 6 g ai/ha
structure (smiles),measurement,setting,value
"COC(=O)c1cc(Oc2ccc(Cl)cc2Cl)ccc1[N+](=O)[O-] [Bifenox, Methyl 5-(2,4-dichlorophenoxy)-2-nitrobenzoate]",Observed crop damage 21 days after treatment,HELAN Pacino; [5],15%
same,% Herbicidal activity,Sorghum halepense,10%
same,% Herbicidal activity,Convolvulus arvensis; [6],75%
same,% Herbicidal activity,Papaver rhoeas; [5],10%
same,% Herbicidal activity,Papaver rhoeas; [7],5%
same,% Herbicidal activity,Mercuralis annua [1]; [7],55%
same,% Herbicidal activity,"Abutilon theophrasti; BBCH 12-14, Flumioxazin 2, Bifenox 168 g ai/ha",55%
same,% Herbicidal activity,Abutilon theophrasti; [6],80%
same,% Herbicidal activity,Ambrosia artemisiifolia; [6],60%
same,% Herbicidal activity,"Polygonum aviculare; BBCH 12-14, Flumioxazin 4, Bifenox 168 g ai/ha",20%
same,% Herbicidal activity,Sonchus arvensis; [5],30%
same,% Herbicidal activity,Portulaca oleracea,10%
same,% Herbicidal activity,"Chenopodium album; BBCH 12-14, Flumioxazin 1, Bifenox 168 g ai/ha",20%
same,Observed crop damage 21 days after treatment,HELAN w F(383)I; [5],5%
CCSC(C)CC1CC(=O)C(/C(CC)=N/OC/C=C/Cl)=C(O)C1 (centres unmarked) [Clethodim],% Herbicidal activity,Convolvulus arvensis; [8],0%
same,% Herbicidal activity,Hibiscus trionum; [8],10%
same,% Herbicidal activity,"Ambrosia artemisiifolia; BBCH 12-14, Saflufenacil 1, Clethodim 30 g ai/ha",10%
same,% Herbicidal activity,Polygonum aviculare; [8],0%
same,% Herbicidal activity,Matricaria chamomilla; [8],0%
same,% Herbicidal activity,Sonchus arvensis; [8],5%
same,% Herbicidal activity,"Chenopodium album; BBCH 12-14, Saflufenacil 4, Clethodim 30 g ai/ha",0%
"CS(=O)(=O)NC(=O)c1cc(Oc2ccc(C(F)(F)F)cc2Cl)ccc1[N+](=O)[O-] [Fomesafen, 5-[2-Chloro-4-(trifluoromethyl)phenoxy]-N-(methanesulfonyl)-2-nitrobenzamide]",% Herbicidal activity,"Convolvulus arvensis; BBCH 12-14, Flumioxazin 0.5, Fomesafen 123 g ai/ha",70%
same,% Herbicidal activity,Solanum nigrum,90%
same,% Herbicidal activity,"Abutilon theophrasti; BBCH 12-14, Saflufenacil 2, Fomesafen 1 g ai/ha",94%
same,% Herbicidal activity,"Matricaria chamomilla; BBCH 12-14, Flumioxazin 1, Fomesafen 123 g ai/ha",85%
same,% Herbicidal activity,Echinochloa crus-galli [2]; [9],85%
same,% Herbicidal activity,"Echinochloa crus-galli [2]; BBCH 12-14, Saflufenacil 4, Fomesafen 123 g ai/ha",95%
same,% Herbicidal activity,Chenopodium album; [9],80%
COc1c(Cl)ccc(-c2cc(N)c(Cl)c(C(=O)O)n2)c1F [Halauxifen],Observed crop damage 21 days after treatment,HELAN Pacino; [10],5%
same,% Herbicidal activity,Convolvulus arvensis; [10],60%
same,% Herbicidal activity,"Convolvulus arvensis; BBCH 12-14, Saflufenacil 0.5, Halauxifen 1 g ai/ha",70%
same,% Herbicidal activity,Papaver rhoeas; [10],95%
same,% Herbicidal activity,Matricaria chamomilla; [11],5%
same,% Herbicidal activity,"Matricaria chamomilla; BBCH 12-14, Saflufenacil 2, Halauxifen 1 g ai/ha",65%
same,% Herbicidal activity,Sonchus arvensis; [11],65%
same,% Herbicidal activity,Setaria viridis; [10],70%
same,Observed crop damage 21 days after treatment,HELAN w F(383)I; [10],15%
"COCc1cnc(C2=NC(C)(C(C)C)C(=O)N2)c(C(=O)O)c1 (centres unmarked) [Imazamox, 5-(methoxymethyl)-2-(4-methyl-5-oxo-4-propan-2-yl-1H-imidazol-2-yl)pyridine-3-carboxylic acid]",% Herbicidal activity,Mercuralis annua [1]; [12],30%
same,% Herbicidal activity,Hibiscus trionum; [12],65%
same,% Herbicidal activity,"Abutilon theophrasti; BBCH 12-14, Flumioxazin 1, Imazamox 10 g ai/ha",84%
same,% Herbicidal activity,"Ambrosia artemisiifolia; BBCH 12-14, Flumioxazin 4, Imazamox 10 g ai/ha",85%
same,% Herbicidal activity,Ambrosia artemisiifolia; [13],75%
same,% Herbicidal activity,Matricaria chamomilla; [13],35%
same,% Herbicidal activity,"Setaria viridis; BBCH 12-14, Saflufenacil 0.5, Imazamox 10 g ai/ha",75%
CCC(CC)Nc1c([N+](=O)[O-])cc(C)c(C)c1[N+](=O)[O-] [Pendimethalin],% Herbicidal activity,Mercuralis annua [3],42%
same,% Herbicidal activity,"Amaranthus retroflexus; Saflufenacil 12.5, Pendimethalin 840 g ai/ha",37%
same,% Herbicidal activity,Amaranthus retroflexus; [14],80%
same,% Herbicidal activity,Echinochloa crus-galli [4]; [14],80%
same,% Herbicidal activity,"Echinochloa crus-galli [4]; Saflufenacil 12.5, Pendimethalin 1365 g ai/ha",36%
same,% Herbicidal activity,"Echinochloa crus-galli [4]; Saflufenacil 50, Pendimethalin 1064 g ai/ha",80%
"CCOC(=O)COc1cc(-c2nn(C)c(OC(F)F)c2Cl)c(F)cc1Cl [Pyraflufen-ethyl, ethyl 2-[2-chloro-5-[4-chloro-5-(difluoromethoxy)-1-methylpyrazol-3-yl]-4-fluorophenoxy]acetate]",% Herbicidal activity,"Convolvulus arvensis; BBCH12-14, Flumioxazin 0.5, Pyraflufen-ethyl 1.5 g ai/ha",70%
same,% Herbicidal activity,Polygonum aviculare; [15],90%
same,% Herbicidal activity,Erigeron canadensis,80%
same,% Herbicidal activity,Sonchus arvensis; [15],98%
"Cc1nn(-c2cc(NS(C)(=O)=O)c(Cl)cc2Cl)c(=O)n1C(F)F [Sulfentrazone, N-{2,4-Dichloro-5-[4-(difluoromethyl)-3-methyl-5-oxo-4,5-dihydro-1H-1,2,4-triazol-1-yl]phenyl}methanesulfonamide]",% Herbicidal activity,Eleusine indica,80%
same,% Herbicidal activity,Urochloa texana,45%
"COC(=O)c1ccccc1S(=O)(=O)NC(=O)N(C)c1nc(C)nc(OC)n1 [Tribenuron-methyl, Methyl 2-[[(4-methoxy-6-methyl-1,3,5-triazin-2-yl)-methylcarbamoyl]sulfamoyl]benzoate]",% Herbicidal activity,Papaver rhoeas; [16],95%
same,% Herbicidal activity,"Ambrosia artemisiifolia; BBCH 12-14, Saflufenacil 1, Tribenuron-methyl 6 g ai/ha",90%
same,% Herbicidal activity,Setaria viridis; [16],25%
